# Experimental data from PubChem BioAssay AID1645863 (Buhrlage Lab, Dana-Farber Cancer Institute and Novartis …, 2021).
# Active and inactive are the calls of the source. The rule behind the calls is not given here.
# Molecular target: Ubiquitin carboxyl-terminal hydrolase 10 (Homo sapiens) (UniProt Q14694)
# Assay: primary hit verification, biochemical, ubiquitin-specific protease 10 deubiquitylase inhibitors, concentration-effect titration (AID 1645863);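 note: potency values describe inhibition of USP10 cleavage of a fluorogenic ubiquitin substrate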
# Conditions: USP10 deubiquitinase enzymatic assay
# Sequence of Ubiquitin carboxyl-terminal hydrolase 10 (Homo sapiens) (Q14694 whole entry, looked up): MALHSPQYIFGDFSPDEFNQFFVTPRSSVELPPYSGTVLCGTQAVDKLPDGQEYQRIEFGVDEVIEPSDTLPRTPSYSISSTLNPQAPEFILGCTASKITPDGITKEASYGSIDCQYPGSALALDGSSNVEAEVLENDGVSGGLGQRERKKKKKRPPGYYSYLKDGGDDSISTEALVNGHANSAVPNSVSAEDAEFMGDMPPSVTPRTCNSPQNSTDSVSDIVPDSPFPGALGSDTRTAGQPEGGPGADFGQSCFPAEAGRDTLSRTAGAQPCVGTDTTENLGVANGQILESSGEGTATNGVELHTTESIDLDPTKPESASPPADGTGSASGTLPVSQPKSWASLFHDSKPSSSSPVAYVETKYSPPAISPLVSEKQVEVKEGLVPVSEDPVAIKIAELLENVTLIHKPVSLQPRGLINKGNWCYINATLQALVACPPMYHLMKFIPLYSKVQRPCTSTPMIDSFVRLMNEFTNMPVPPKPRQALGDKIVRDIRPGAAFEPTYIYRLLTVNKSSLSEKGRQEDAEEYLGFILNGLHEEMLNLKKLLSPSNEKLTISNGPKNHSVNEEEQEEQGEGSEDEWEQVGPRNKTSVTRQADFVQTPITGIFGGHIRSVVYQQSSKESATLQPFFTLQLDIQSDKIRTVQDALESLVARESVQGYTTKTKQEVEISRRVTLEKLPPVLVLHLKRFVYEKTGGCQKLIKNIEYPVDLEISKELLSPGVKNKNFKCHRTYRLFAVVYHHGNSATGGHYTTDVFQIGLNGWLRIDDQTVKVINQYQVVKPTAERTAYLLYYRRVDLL
row,IC50,Compound
1,> 40 µM (inactive),COc1cc(NC(=O)Cn2nc(-c3ccc(F)cc3)ccc2=O)ccc1-n1cnnn1
2,> 40 µM (inactive),CS(=O)(=O)c1cccc(C(=O)Nc2sc3c(c2C(N)=O)CCCC3)c1
3,16.2 µM,CCOC(=O)c1ccc(NC(=O)Cn2c(=O)n(CC(=O)NCc3ccco3)c(=O)c3ccccc32)cc1
4,39.1 µM,CCOc1ccc(-n2ccnc(SCC(=O)Nc3ccccc3F)c2=O)cc1
5,> 40 µM (inactive),COc1ccc(-c2cc3c(=O)n(CC(=O)NCc4ccccc4)ncn3n2)cc1
6,inactive,CO/C=C/C(=O)c1cc2cnc3c(=N)cc(NC(C)=O)c([nH]1)c23
7,> 40 µM (inactive),CCOc1cc2c(cc1OCC)C(c1cc3c(cc1Br)OCO3)NCC2 (configuration not stated)
8,> 40 µM (inactive),COc1ccc(CCN2COc3c(cc(Cl)c4cccnc34)C2)cc1OC
9,> 40 µM (inactive),O=C(COC(=O)c1cc2c(s1)CCC2)c1ccc2[nH]c(=O)[nH]c2c1
10,> 40 µM (inactive),N=C1/C(=C/c2cn(Cc3ccccc3)c3ccccc23)C(=O)N=C2SC(C(F)(F)F)=NN12
11,> 40 µM (inactive),O=C(NCc1ccc2c(c1)OCO2)c1cc2c(s1)-c1ccccc1OC2
12,22.3 µM,CC(C)c1ccc(NC(=O)COC(=O)c2ccc(NS(=O)(=O)c3ccc4c(c3)OCCO4)cc2)cc1
13,10.5 µM,COc1ccc(Nc2nc3c(S(=O)(=O)c4ccc(C)cc4)nnn3c3ccsc23)c(OC)c1
14,> 40 µM (inactive),Cc1ccc(Cn2c(C(=O)O)c(CNCc3ccco3)c3ccccc32)cc1
15,> 40 µM (inactive),O=C(c1cccnc1)N1CCN(c2cc(-c3ccccc3)[nH]n2)CC1
16,> 40 µM (inactive),Cc1cc(N2CCN(c3ncccn3)CC2)nc2ccc(NC(=O)c3ccncc3)cc12
17,> 40 µM (inactive),COc1ccc(NC(=O)Cn2c(=O)n(CCCC(=O)NCCc3ccc(OC)c(OC)c3)c(=O)c3ccccc32)cc1Cl
18,> 40 µM (inactive),COc1ccccc1N1CCN(C(=O)c2ccc3c(=O)n(CCc4ccccc4)c(=O)[nH]c3c2)CC1
19,10.2 µM,O=C1Nc2ccccc2C(=O)C1C(c1ccc(Cl)cc1)C1C(=O)Nc2ccccc2C1=O (configuration not stated)
20,9.91 µM,O=C(O)c1cccc(NC(=O)C(Sc2cccc(NC(=O)c3cccc(Cl)c3)c2)c2ccccc2)c1 (configuration not stated)
21,> 40 µM (inactive),COc1cccc2cc(-c3nnc(SCC(=O)c4ccc(F)cc4)n3C)oc12
22,> 40 µM (inactive),Cc1ccc(CC(=O)Nc2ccc(C)cc2-c2n[nH]c(C3CC3)n2)cc1
23,> 40 µM (inactive),Cc1cccc(NC(=O)c2noc3c2CCc2sccc2-3)n1

row,IC50,Compound
1,> 40 µM (inactive),O=C(Nc1ccccc1)[C@@H]1[C@@H]2C(=O)N(c3ccc([N+](=O)[O-])cc3)C(=O)[C@@H]2[C@H]2c3ccccc3C=CN12
2,> 40 µM (inactive),O=C(COc1nc2ccccc2nc1N1CCOCC1)NC(c1ccccc1)c1ccccc1
3,> 40 µM (inactive),Cc1ccccc1-c1nc(-c2cn(CC(=O)Nc3ccccc3)cn2)no1
4,36.1 µM,Cn1c(CCNC(=O)c2[nH]nc3c2CCc2ccccc2-3)nc2ccccc21
5,> 40 µM (inactive),O[C@H]1[C@H](NCc2cccc(C(F)(F)F)c2)[C@@H](c2cncnc2)C[C@H]1O
6,8.37 µM,O=C(NCCc1ccccc1)c1ccc2c(=O)n(Cc3ccco3)c(=O)n(Cc3cccc([N+](=O)[O-])c3)c2c1
7,> 40 µM (inactive),CCc1cc(=O)oc2c(C)c(OCC(=O)NCc3ccccn3)ccc12
8,13.5 µM,Cc1ccc(-c2nc(NC(=O)COc3ccc(Cl)cc3)no2)cc1
9,> 40 µM (inactive),COc1ccc(C(=O)NC(Cc2ccccc2)c2nc3ccccc3[nH]2)c(OC)c1 (configuration not stated)
10,> 40 µM (inactive),COc1cccc(NC(=O)CCc2nnc3n(CCCOC(C)C)c(=O)c4ccccc4n23)c1
11,16.8 µM,O=C(O)c1ccccc1C(=O)Nc1ccc(SC(C(=O)Nc2ccccc2Cl)c2ccccc2)cc1 (configuration not stated)
12,> 40 µM (inactive),COc1cccc(N2CCCN(C(=O)c3ccc4nc(C)[nH]c4c3)CC2)c1
13,> 40 µM (inactive),COc1ccc(CNC(=O)CN2C(=O)CC(c3ccccc3)=Nc3ccccc32)cc1
14,> 40 µM (inactive),Cc1cc(Cl)ccc1NC(=O)c1cc(-c2ccncc2)n[nH]1
15,> 40 µM (inactive),O=C1CC(c2ccccc2)n2ncnc2N1 (configuration not stated)
16,> 40 µM (inactive),CN(C(=O)C1(c2ccccc2)CC1)c1nc2c(s1)CCc1occc1-2
17,17.4 µM,Cc1cccc(NC(=O)Nc2nnc(CC(=O)NCc3ccccc3)s2)c1
18,28.4 µM,Cc1cc(=O)n(CC(=O)Nc2ccccc2C)c(Nc2ccc(F)cc2)n1
19,13.2 µM,O=c1[nH]c(C2CCN(S(=O)(=O)c3ccc(S(=O)(=O)NC4CCCC4)cc3)CC2)nc2c1nnn2Cc1cccc(Cl)c1
20,> 40 µM (inactive),Cc1ccc(-n2nc(C)c3c2NC(=O)CC3C(=O)c2cc3ccccc3o2)cc1 (configuration not stated)
21,18.7 µM,COc1ccc(Nc2nnc(Cc3ccc(Cl)cc3)c(=O)[nH]2)cc1
22,18.5 µM,C[C@@H]1CO[C@@H]2C3=C(C(=O)C=CC3=O)[C@H]3OC(=O)[C@@H]4CCC5[C@@H]1CCC52C34 (some centres not stated)
23,4.38 µM,COc1cc(C)cc2c1C(=O)c1c(cc(O)c(Cl)c1O)C2=O

row,IC50,Compound
1,> 40 µM (inactive),CCn1c(SCC(=O)c2c(N)n(CC(C)C)c(=O)n(C)c2=O)nnc1-c1ccccc1
2,> 40 µM (inactive),COC(=O)c1ccc(NC(=O)c2ccc(COc3cc(Cl)ccc3Cl)cc2)cc1
3,> 40 µM (inactive),COc1ccc(N2CC(c3nnc(NC(=O)CCc4ccccc4)s3)CC2=O)cc1 (configuration not stated)
4,> 40 µM (inactive),COc1ccccc1Nc1ncc(C(=O)NCCc2ccc(Cl)cc2)c2ccccc12
5,> 40 µM (inactive),CCc1nnc(C(=O)Nc2ccc(C(=O)NCc3ccc(OC(C)C)cc3)cc2)s1
6,13 µM,COC(=O)c1ccccc1NC(=O)Cn1c(=O)n(CCCC(=O)NCc2ccco2)c(=O)c2ccccc21
7,> 40 µM (inactive),O=C(Nc1c2c(nn1-c1ccc([N+](=O)[O-])cc1)CSC2)c1c(F)cccc1F
8,14.4 µM,O=S(=O)(Nc1cccc(O)c1)c1ccc2oc3ccc(S(=O)(=O)Nc4cccc(O)c4)cc3c2c1
9,> 40 µM (inactive),CCCCOc1ccc(C(=O)n2ccn(S(=O)(=O)c3ccc(C)cc3)c2=O)cc1
10,> 40 µM (inactive),N#Cc1cccc(NC(=O)Cn2cccc2-c2nc(-c3ccccc3)no2)c1
11,> 40 µM (inactive),Cc1c(C(=O)Nc2ccc(Oc3ccccc3)cc2)nnn1-c1cccc(Cl)c1
12,> 40 µM (inactive),COc1ccc(-c2cc3nc([C@H](C)NC(=O)Cc4ccccc4C)nn3cn2)cc1
13,21.6 µM,COc1ccc(-c2cc(-c3ccccc3)nc(SCC(N)=O)c2C#N)cc1OC
14,> 40 µM (inactive),COc1ccc(Cl)cc1NC(=O)Cn1c(=O)n(CCC(=O)NC2CCCC2)c(=O)c2ccccc21
15,> 40 µM (inactive),Cc1ccc(S(=O)(=O)NCc2ccc(C(=O)NCCc3ccc(S(N)(=O)=O)cc3)cc2)cc1
16,> 40 µM (inactive),O=C(Nc1cccc(Cl)c1)c1cc(-c2cccnc2)n[nH]1
17,> 40 µM (inactive),CNc1nc2c(c(=O)n1C)CN(C(=O)Nc1cccc3ccccc13)CC2
18,2.44 µM,CCCCCCCCCCCC1=C(O)C(=O)C=C(O)C1=O
19,13.8 µM,COc1cc(OC)cc(N2C(=O)N(CC(=O)c3ccc(Br)cc3)c3ccccc3S2(=O)=O)c1
20,22.8 µM,COc1ccc(NC(=O)Cn2cc(C(=O)c3ccccc3)c(=O)c3cc(Cl)ccc32)cc1OC
21,> 40 µM (inactive),CCCCNC(=O)CSc1nnc(-c2cc3ccccc3n2C)o1
22,24.6 µM,Cc1cc(OCC(=O)Nc2ccccc2C(=O)Nc2ccccc2)ccc1Cl
23,27.4 µM,O=C(Cn1c(=O)c2ccccc2n(CC(=O)Nc2cccc(F)c2)c1=O)NCCc1ccccc1

row,IC50,Compound
1,> 40 µM (inactive),COc1ccc(C(=O)COC(=O)c2cccc(NC(=O)c3ccc(Cl)cc3)c2)cc1
2,20.2 µM,N#C/C(=C\c1ccc(OCc2cccc(C(=O)O)c2)cc1)c1ccc(F)cc1
3,> 40 µM (inactive),O=C(Cn1c(=O)n(CC2CCC(C(=O)NC3CCCC3)CC2)c(=O)c2ccccc21)NCCC1=CCCCC1 (configuration not stated)
4,> 40 µM (inactive),CNc1ccc(-c2noc([C@@H]3CCCN3Cc3cccc(C#N)c3)n2)cn1
5,16 µM,COc1ccc(CCNC(=O)Cn2c(=O)c3sccc3n(Cc3cccc([N+](=O)[O-])c3)c2=O)cc1OC
6,> 40 µM (inactive),CCN(c1ccc(NC(=O)COC(=O)c2cccnc2Nc2cccc(C(F)(F)F)c2)cc1)C(C)C
7,> 40 µM (inactive),Cc1ccccc1-c1nnc2sc(COc3ccc(Cl)cc3)nn12
8,> 40 µM (inactive),Cn1nc(C(=O)N2CCC(c3ccccc3)C2)c2c1-c1ccsc1CC2 (configuration not stated)
9,> 40 µM (inactive),COc1c(C)c(C(O)C(C)O)c2[nH]c3ccc(CC=C(C)C)cc3c2c1O (configuration not stated)
10,12.2 µM,Cc1nc(N2CCCC2)ncc1-c1cc(=O)[nH]c(Nc2ccc(Cl)cc2Cl)n1
11,> 40 µM (inactive),O=c1[nH]cccc1NS(=O)(=O)c1ccc(F)cc1
12,7.42 µM,Cc1cccc(C(=O)Nc2cccc(SC(C(=O)Nc3ccc(Cl)c(C(=O)O)c3)c3ccccc3)c2)c1 (configuration not stated)
13,> 40 µM (inactive),COc1cc(OC)c(NC(=O)Cn2c(=O)n(Cc3ccccc3Cl)c(=O)c3cc(OC)c(OC)cc32)cc1Cl
14,> 40 µM (inactive),O=C(c1ccccc1CN1CCOCC1)N1CCOCC2(C1)CN(c1ccc(F)cc1)C(=O)O2 (configuration not stated)
15,38.4 µM,COc1ccc(CC(=O)Nc2c(NCc3ccccc3)c3ccccc3oc2=O)cc1
16,15.5 µM,COCCn1c(=O)[nH]c2cc(C(=O)NCCNc3ccc([N+](=O)[O-])cc3C#N)ccc2c1=O
17,> 40 µM (inactive),COc1ccc(S(=O)(=O)NC2CC(=O)N(c3ccc(Cl)cc3)C2)cc1 (configuration not stated)
18,> 40 µM (inactive),CN(C)c1ccc(CNC(=O)c2nnc(C(=O)Nc3ccccc3)s2)cc1
19,35.6 µM,O=C(Cn1cc(C(=O)C(F)(F)F)c2cc(Br)ccc21)N1CCc2ccccc21
20,> 40 µM (inactive),Cc1c(C#N)c2ccccc2n1CC(=O)NCc1ccc2c(c1)OCO2
21,19.5 µM,N#Cc1cn2c(nc1-c1ccc(Cl)cc1)nc1ccccc12

row,Compound,IC50
1,CC(C)=CCOC(C)(C)[C@H]1OC2CC[C@@]3(C)C(CCC4Cc5c([nH]c6ccccc56)[C@@]43C)C23OC3[C@@H]1O (some centres not stated),10.6 µM
2,CCOc1ccc(C2SCC(=O)Nc3c2c(=O)[nH]n3C2CCCCC2)cc1 (configuration not stated),> 40 µM (inactive)
